The record followed here is PubChem BioAssay (NCI).

Several values for one entry are separate records, joined by “and”; a condition that tells them apart may be missing. Equal values may be shown once.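 How tested: cells in 96-well plates exposed to compound for 48 hours at five concentrations. GI50 = concentration required for 50% inhibition of growth. TGI marks complete inhibition of growth.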 Some results are limits rather than exact numbers.

Common to all, as to assay: inhibition of tumour cell growth, NCI panel, 48 h
Test [1] has as its system HCC-2998 colon.
The subject of test [2] is HCT-15 colon.
Test [3] has as its system HOP-62 NSCLC.
For test [4], the system named is HT29 colon.
Test [5] has as its system IGROV1 ovarian.
The test system of test [6] is NCI-H23 lung.
Test [7] deals with OVCAR-3 ovarian.
The test system of test [8] is UACC-62 melanoma.
Test [9] relates to MDA-MB-435.

For `O=C(CC1(O)C(=O)Nc2c(Cl)ccc(Cl)c21)c1ccc(Cl)cc1` (stereo not drawn), the TGI in test [1] was 71 µM; in test [2], > 100 µM; in test [3], > 100 µM; in test [4] it was 73.2 µM; in test [5], 57.7 µM; in [6] it was 46.5 µM. In addition, the TGI in test [7] worked out at 47.4 µM; in test [8], 48.9 µM.

For `O=C(/C=C(\[O-])c1ccccc1)CCCCCCC(=O)/C=C(\[O-])c1ccccc1.O=C(/C=C(\[O-])c1ccccc1)CCCCCCC(=O)/C=C(\[O-])c1ccccc1.O=C(/C=C(\[O-])c1ccccc1)CCCCCCC(=O)/C=C(\[O-])c1ccccc1.[Y+3].[Y+3]`, the GI50 in [1] was > 50 µM; in test [3] it was 18.8 µM; in test [4], > 50 µM; in [5] it was > 50 µM; in [6], 13.4 µM; in test [7] it was > 50 µM. Moreover, the GI50 in [8] was 47.5 µM. Also, the TGI in [1], in test [3], in test [4], in test [5], in test [6] and in test [7] was > 50 µM in each case. The TGI in test [8] was > 50 µM.

`CN(C)c1ccc(/C=c2/sc3nc(=O)c(-c4ccccc4NC(=O)C(F)(F)F)nn3c2=O)cc1`: the TGI in [1], in test [3], in test [4], in test [5], in test [6] and in [7] was > 100 µM in each case. Moreover, in [8], the TGI was > 100 µM.

Take `C/C(=C\c1ccccc1)C(O)C(=O)c1nc2ccc(Cl)cc2[nH]c1=O` (stereo not drawn): the TGI in [1], in test [2], in test [3], in [4], in test [5] and in [6] was > 100 µM in each case. Also, the TGI in test [7] and in test [8] was > 100 µM throughout.

For the molecule `CCCCC(C(=O)C(=O)Nc1ccccc1CC)C(=O)C(C)C` (stereo not drawn), the TGI in test [1], in test [2], in test [4], in test [5], in [6] and in [7] was > 100 µM throughout. Besides, the TGI in [8] was > 100 µM.

For the molecule `CC(=O)NC(CCCNC(=O)OCc1ccccc1)C(=O)NCc1ccccc1` (stereo not drawn), the TGI in test [1], in test [2], in test [3], in [4], in test [5] and in [6] was > 100 µM each time. Also, the TGI in test [7] and in test [8] was > 100 µM in each case.

Turning to `O=[N+]([O-])c1ccc(/C=C/c2ccc(/C=C/c3ccc([N+](=O)[O-])cc3[N+](=O)[O-])cc2)c([N+](=O)[O-])c1`, the TGI in [1], in test [2], in test [3], in [4], in test [5] and in test [6] was > 100 µM each time. Besides, the TGI in test [7] and in [8] was > 100 µM in each case.

In the case of `N#CC1(CCCCl)CCCCC1`, the TGI in test [1], in test [2], in [4], in [5], in [6] and in [7] was > 100 µM in each case. The TGI in [8] was > 100 µM.

Regarding `CCOC(=O)C1C(NC(N)=O)N(Cc2ccccc2)C(=O)N1Cc1ccccc1` (stereo not drawn), the TGI in test [1], in [2], in test [3], in test [4], in test [5] and in test [7] was > 100 µM throughout. In addition, the TGI in [8] was > 100 µM.

Consider `NS(=O)(=O)c1cc2c(cc1Cl)NCNS2(=O)=O`, for which the TGI in [1], in test [2], in test [3], in test [4], in test [5] and in test [9] was > 100 µM in each case. In addition, the TGI in test [6] and in test [7] was > 100 µM in each case.

With `CCN1CCN(CC(=O)Nc2nc3ccc(NCc4ccc(Br)cc4)cc3s2)CC1`, the GI50 in [9] was 1.69 µM; in [6] it was 3.22 µM; in [8], 1.9 µM. For the same molecule, the TGI was 3.23 µM in test [9], > 100 µM in test [6] and 3.52 µM in test [8].

With `N#Cc1c(CC(=O)O)cc(=O)n2c1[nH]c1ccccc12`, the TGI in test [1], in test [2], in test [3], in test [4], in test [5] and in test [6] was > 100 µM throughout. Besides, in test [7], the TGI was > 100 µM.

On to `O/N=C1/C(=C/c2ccc(OCc3ccccc3)cc2)CCCC1C(NO)c1ccc(OCc2ccccc2)cc1` (stereo not drawn), for which the TGI in [1], in test [2], in test [3], in [4], in [5] and in test [6] was > 100 µM throughout. The same molecule returned a TGI in [7] of 88.8 µM.

In the case of `CCCCCNC(=O)CCCCCCCCCCCNC(=O)CCCCCCCCCCN1C=CC(=CC=C2C=CC(=O)C=C2)C=C1`, the TGI in test [1], in [2], in [3], in test [4], in test [5] and in test [6] was > 100 µM each time. Besides, the TGI in test [7] and in [8] was > 100 µM in each case.

Consider `CC(C)(C)C1CCC(O)(c2ccccc2)CC1` (stereo not drawn), for which the TGI in test [1] was > 100 µM and 60 µM; in test [2], > 100 µM and 52.4 µM; in test [3], > 100 µM; in [4] it was > 100 µM and 30.2 µM; in test [5] it was > 100 µM and 81.5 µM; in test [6] it was > 100 µM. Besides, the TGI in [7] was > 100 µM and 41.7 µM; in [8], > 100 µM and 45.1 µM.
